Source: patent US8129355B2, “Ketone ligands for modulating the expression of exogenous genes via an ecdysone receptor complex” (priority 2002, dated 2012)
Like-named read-outs stand apart in the source and are kept apart here.

How the values were obtained:
[1] = target: T1, Gal4 DBD/AaEcR (DEF) with VP16-βRXR-E (Aedes aegypti, UniProt P49880); assay: cell-based; format: cell-based; settings: for Fold Induction Average, AA_3T3 Assay (33 μM): single dose 33 μM, RLU ligand treated / RLU DMSO treated cells; for LC50 (half-maximal ligand concentration for reporter induction): average, dose response 33 μM to 0.01 μM, three-parameter logistic model, read-out: AA_3T3 LC50; for AA_3T3 Rel Max FI: maximum fold induction at any concentration relative to that of GS-E ligand
T1 construct: The wildtype D, E, and F domains from mosquito Aedes aegypti EcR (“AaEcR-DEF”); expressed in transfected cells; host or cells: 3T3 cells, transient transfection (Superfect)
Description: 3T3 cells were trypsinized and plated at 2.5×10^3 cells/well on a 96-well plate. After incubation for 24 h at 37° C. under 5% CO2, cells were transfected with the Gal4 DBD/AaEcR (DEF) gene expression cassette and the reporter plasmid, pFRLuc, containing a 5XGAL4 response element and the firefly luciferase gene in serum free media using Superfect (Qiagen). After transfection for 4 h at 37° C., the cells were treated with ligand in serum media. […] Single dose testing was performed at 33 μM.

[2] = target: T2, Bombyx mori EcR (VP16 fusion, switch construct CVBE) with 6XEcRE LacZ reporter (Bombyx mori, UniProt P49881); assay: Z3 assay: β-galactosidase (LacZ) reporter gene fold induction in stably transformed human 293 kidney cells (clone Z3); format: cell-based
T2 construct: expressed in transfected cells; host or cells: Human 293 kidney (HEK-293) cells, retrovirally infected, clone Z3
T2 sequence (P49881 86-606 limits assumed): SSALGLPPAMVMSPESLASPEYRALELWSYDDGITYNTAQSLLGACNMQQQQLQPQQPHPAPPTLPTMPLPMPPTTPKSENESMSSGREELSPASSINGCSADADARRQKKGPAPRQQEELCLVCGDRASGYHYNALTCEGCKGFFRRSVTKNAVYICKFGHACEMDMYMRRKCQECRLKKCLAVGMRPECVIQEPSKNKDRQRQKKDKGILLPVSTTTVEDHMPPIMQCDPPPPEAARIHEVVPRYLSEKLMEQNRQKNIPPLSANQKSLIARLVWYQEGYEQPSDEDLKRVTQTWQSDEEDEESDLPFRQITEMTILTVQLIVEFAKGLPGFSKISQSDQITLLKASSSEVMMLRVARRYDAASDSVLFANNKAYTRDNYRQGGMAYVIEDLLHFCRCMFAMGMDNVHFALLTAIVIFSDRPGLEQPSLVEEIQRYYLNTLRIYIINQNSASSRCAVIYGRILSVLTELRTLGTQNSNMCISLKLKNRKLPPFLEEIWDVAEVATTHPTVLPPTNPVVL
T2 sequence (P19793 1-462 partner): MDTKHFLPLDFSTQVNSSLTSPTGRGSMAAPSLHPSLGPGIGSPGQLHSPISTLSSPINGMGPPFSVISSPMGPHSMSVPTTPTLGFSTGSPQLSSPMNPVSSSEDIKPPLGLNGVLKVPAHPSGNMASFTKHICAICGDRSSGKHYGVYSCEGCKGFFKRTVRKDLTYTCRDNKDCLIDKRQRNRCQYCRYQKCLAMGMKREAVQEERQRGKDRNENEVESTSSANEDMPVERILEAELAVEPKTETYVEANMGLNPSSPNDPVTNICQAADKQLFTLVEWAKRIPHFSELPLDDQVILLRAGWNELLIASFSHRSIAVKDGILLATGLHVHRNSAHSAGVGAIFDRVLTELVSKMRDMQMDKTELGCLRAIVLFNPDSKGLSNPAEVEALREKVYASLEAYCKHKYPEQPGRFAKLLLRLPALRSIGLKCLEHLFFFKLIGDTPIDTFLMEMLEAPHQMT
Procedure, shortened: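 β-Galactosidase read 48 h after dosing by bioluminescent assay; ligand added at 33 μM with DMSO held at 0.03%. The cells are stable 293 clone Z3, expressing a CMV-driven VP16 fusion of Bombyx mori EcR residues 26-546 plus six EcRE copies upstream of lacZ.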

[3] = single dose 33 μM; ligand treated / DMSO treated cells
[4] = average; dose response, three-parameter logistic model; read-out: Z3 LC50
[5] = maximum fold induction at any concentration relative to that of GS-E ligand
[6] = single dose 33 μM; ligand treated / DMSO treated cells; read-out: Fold Induction Average, Z3 Assay (33 μM)
[7] = read-out: Fold Induction Average, Z3 Assay (33 μM)
[8] = read-out: Z3 LC50; average; dose response, three-parameter logistic model

T1 sequence (P28704 286-520 A311G/G315S/G445S/I449V): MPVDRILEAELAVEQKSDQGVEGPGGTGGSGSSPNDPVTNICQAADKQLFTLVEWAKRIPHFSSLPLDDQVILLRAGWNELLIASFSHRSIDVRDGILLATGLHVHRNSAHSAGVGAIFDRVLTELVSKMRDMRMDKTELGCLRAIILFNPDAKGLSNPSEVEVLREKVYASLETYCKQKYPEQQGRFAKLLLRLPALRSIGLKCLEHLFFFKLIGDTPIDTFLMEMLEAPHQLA
T1 sequence (P49880 405-776): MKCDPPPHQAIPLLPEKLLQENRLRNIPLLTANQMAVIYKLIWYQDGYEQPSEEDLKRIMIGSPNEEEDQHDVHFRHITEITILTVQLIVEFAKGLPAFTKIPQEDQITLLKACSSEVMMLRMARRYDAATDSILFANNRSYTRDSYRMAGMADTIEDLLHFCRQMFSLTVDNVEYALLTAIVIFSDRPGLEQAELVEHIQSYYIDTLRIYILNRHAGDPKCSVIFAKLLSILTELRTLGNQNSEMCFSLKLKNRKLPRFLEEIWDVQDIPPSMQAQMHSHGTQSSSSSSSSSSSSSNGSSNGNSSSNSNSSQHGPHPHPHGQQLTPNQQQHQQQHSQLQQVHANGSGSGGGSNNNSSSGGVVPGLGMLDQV

CCNC(=O)N1CCC(NC(=O)c2cccc(OC)c2C)(C(=O)c2cc(C)cc(C)c2)CC1 [Example 157]
Fold Induction Average, AA_3T3 Assay (33 μM) [1]: 1
Fold Induction Average, Z3 Assay (33 μM) [2, 3]: 2

COc1cccc(C(=O)NC2(C(=O)c3ccccc3)CCCC2)c1 [Example 141]
Fold Induction Average, AA_3T3 Assay (33 μM) [1]: 1
CC50 [2, 4]: > 33 µM
Z3 Rel Max FI [2, 5]: 0.00

COc1ccccc1C(=O)C1(NC(=O)c2cccc(OC)c2C)CCCCCC1 [Example 70]
LC50 (half-maximal ligand concentration for reporter induction) [1]: 3.21 µM
AA_3T3 Rel Max FI [1]: 0.48
Fold Induction Average, AA_3T3 Assay (33 μM) [1]: 1878
CC50 [2, 4]: 1.94 µM
Z3 Rel Max FI [2, 5]: 0.78
Fold Induction Average, Z3 Assay (33 μM) [2, 3]: 831

COc1cccc(C(=O)NC(C)(C)C(=O)c2cc(C)cc(C)c2)c1C [Example 75]
LC50 (half-maximal ligand concentration for reporter induction) [1]: > 33 µM
AA_3T3 Rel Max FI [1]: 0.02
Fold Induction Average, AA_3T3 Assay (33 μM) [1]: 161
CC50 [2, 4]: ~10 µM
Z3 Rel Max FI [2, 5]: 0.17
Fold Induction Average, Z3 Assay (33 μM) [2, 3]: 312

COc1cccc(C(=O)NC2(C(=O)c3cc(C)cc(C)c3)CCN(C(C)=O)CC2)c1C [Example 149]
fold induction at 33 µM ([1]; NIH3T3, read-out: Fold Induction Average, AA_3T3 Assay (33 μM)): 2
fold induction at 33 µM [2, 6]: 2

COc1cccc(C(=O)NC2(C(=O)c3cc(C)cc(C)c3)CCCCCC2)c1C [Example 71]
LC50 (half-maximal ligand concentration for reporter induction) [1]: 8.18 µM
AA_3T3 Rel Max FI [1]: 0.42
Fold Induction Average, AA_3T3 Assay (33 μM) [1]: 1277
CC50 [2, 4]: 1.61 µM
Z3 Rel Max FI [2, 5]: 0.69
Fold Induction Average, Z3 Assay (33 μM) [2, 3]: 952

CCOC(=O)C(=O)N1CCCC(NC(=O)c2cccc(OC)c2C)(C(=O)c2cc(C)cc(C)c2)C1 (racemic) [Example 154]
Fold Induction Average, AA_3T3 Assay (33 μM) [1]: 2
Fold Induction Average, Z3 Assay (33 μM) [2, 3]: 7

CCC(CC)(NC(=O)c1cccc(OC)c1C)C(=O)c1ccccc1 [Example 78]
LC50 (half-maximal ligand concentration for reporter induction) [1]: > 33 µM
AA_3T3 Rel Max FI [1]: 0.00
Fold Induction Average, AA_3T3 Assay (33 μM) [1]: 14
CC50 [2, 4]: > 33 µM
Z3 Rel Max FI [2, 5]: 0.06

CCC(CC)(NC(=O)c1cccc(OC)c1C)C(=O)c1ccc(C)cc1 [Example 77]
Fold Induction Average, AA_3T3 Assay (33 μM) [1]: 1
CC50 [2, 4]: 32.2 µM
Z3 Rel Max FI [2, 5]: 0.04

CCc1c(OC)cccc1C(=O)NC1(C(=O)c2cc(C)cc(C)c2)CCCC1 [Example 144]
LC50 (half-maximal ligand concentration for reporter induction) [1]: 2.67 µM
AA_3T3 Rel Max FI [1]: 0.70
Fold Induction Average, AA_3T3 Assay (33 μM) [1]: 2339
CC50 [2, 4]: 2.15 µM
Z3 Rel Max FI [2, 5]: 0.86

COc1ccccc1C(=O)C1(NC(=O)c2cccc(OC)c2C)CCCCC1 [Example 45]
Z3 Rel Max FI [2, 5]: 0.84
fold induction at 33 µM [2, 7]: 665
CC50 [2, 8]: 0.98 µM

COc1cccc(C(=O)NC2(C(=O)c3cc(C)cc(C)c3)CCCC2)c1C [Example 10]
CC50 [2, 4]: 1.87 µM
Z3 Rel Max FI [2, 5]: 0.85
fold induction at 33 µM [2, 6]: 464

COc1cccc(C(=O)NC2(C(=O)c3cccc(C)c3)CCCCC2)c1C [Example 7]
Z3 Rel Max FI [2, 5]: 0.78
fold induction at 33 µM [2, 7]: 811
CC50 [2, 8]: 3.51 µM

COc1cccc(C(=O)NC(C)(CC(C)C)C(=O)c2cccc(C)c2)c1C (stereo not drawn) [Example 52]
Z3 Rel Max FI [2, 5]: 0.24
fold induction at 33 µM [2, 7]: 239
CC50 [2, 8]: 6.09 µM

COc1cccc(C(=O)NC2(C(=O)c3ccccc3)CCCCC2)c1C [Example 69]
Z3 Rel Max FI [2, 5]: 0.56
fold induction at 33 µM [2, 7]: 1030
CC50 [2, 8]: 7.52 µM

COc1ccccc1C(=O)C(C)(NC(=O)c1cccc(OC)c1C)C(C)C (stereo not drawn) [Example 30]
Z3 Rel Max FI [2, 5]: 0.20
fold induction at 33 µM [2, 7]: 485
CC50 [2, 8]: ~15 µM

COc1ccccc1C(=O)C(C)(NC(=O)c1cccc(OC)c1C)c1ccc(F)cc1 (stereo not drawn) [Example 72]
Fold Induction Average, AA_3T3 Assay (33 μM) [1]: 3
Fold Induction Average, Z3 Assay (33 μM) [2, 3]: 1

COc1cccc(C(=O)NC(C)(C)C(=O)c2ccccc2)c1C [Example 76]
CC50 [2, 4]: > 33 µM
Z3 Rel Max FI [2, 5]: 0.00
Fold Induction Average, Z3 Assay (33 μM) [2, 3]: 1

COc1cccc(C(=O)NC2(C(=O)c3ccc(C)cc3)CCCC2)c1C [Example 79]
LC50 (half-maximal ligand concentration for reporter induction) [1]: > 33 µM
AA_3T3 Rel Max FI [1]: 0.00
Fold Induction Average, AA_3T3 Assay (33 μM) [1]: 12
CC50 [2, 4]: 34.4 µM
Z3 Rel Max FI [2, 5]: 0.12

COc1cccc(C(=O)NC2(C(=O)c3cc(F)c(F)c(OC)c3)CCCC2)c1C [Example 67]
Z3 Rel Max FI [2, 5]: 0.54
fold induction at 33 µM [2, 7]: 666
CC50 [2, 8]: 4.17 µM

CCCCC(=O)C1(NC(=O)c2cccc(OC)c2C)CCCCC1 [Example 120]
Z3 Rel Max FI [2, 5]: 0.36
fold induction at 33 µM [2, 7]: 791
CC50 [2, 8]: 6.33 µM

O=C(NC1(C(=O)c2ccccc2)CCCC1)c1ccccc1 [Example 139]
Fold Induction Average, AA_3T3 Assay (33 μM) [1]: 2
CC50 [2, 4]: > 33 µM
Z3 Rel Max FI [2, 5]: 0.00

COc1cccc(C(=O)C2(NC(=O)c3cccc(OC)c3C)CCCCC2)c1 [Example 4]
Z3 Rel Max FI [2, 5]: 0.54
fold induction at 33 µM [2, 7]: 233
CC50 [2, 8]: 1.19 µM

CCC(CC)(NC(=O)c1cccc(OC)c1C)C(=O)c1cccc(OC)c1 [Example 49]
Z3 Rel Max FI [2, 5]: 0.01
fold induction at 33 µM [2, 7]: 182
CC50 [2, 8]: > 33 µM

COc1ccccc1C(=O)C(C)(C)NC(=O)c1cccc(OC)c1C [Example 74]
Fold Induction Average, AA_3T3 Assay (33 μM) [1]: 4
Fold Induction Average, Z3 Assay (33 μM) [2, 3]: 18

CCc1c(OC)cccc1C(=O)NC1(C(=O)c2cc(C)cc(C)c2)CCCCC1 [Example 143]
LC50 (half-maximal ligand concentration for reporter induction) [1]: 2.81 µM
AA_3T3 Rel Max FI [1]: 0.59
Fold Induction Average, AA_3T3 Assay (33 μM) [1]: 1929
CC50 [2, 4]: 1.81 µM
Z3 Rel Max FI [2, 5]: 0.85

COc1ccccc1C(=O)C1(NC(=O)c2cccc(OC)c2C)CCCC1 [Example 40]
Z3 Rel Max FI [2, 5]: 0.70
fold induction at 33 µM [2, 7]: 951
CC50 [2, 8]: 5.16 µM

COc1ccc(C(=O)C2(NC(=O)c3cccc(OC)c3C)CCCCC2)cc1 [Example 46]
Z3 Rel Max FI [2, 5]: 0.03
fold induction at 33 µM [2, 7]: 15
CC50 [2, 8]: > 33 µM
